Patent publication US20090221559A1 (priority 2005, published 2009)
Where two headings read alike, the source gives them in different places.

Columns and labels:
[1] = tested on: HCV replicon RNA replication in Huh-7 luc/neo (Huh-Luc) cells; assay: HCV replicon assay (stable replicon cell reporter assay, luciferase read-out); format: cell-based, HCV type 1b
Method in brief: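 Huh-7 cells stably carry a bicistronic HCV 1b NS3-NS5B subgenomic replicon with firefly luciferase and neo markers. Cells were plated with compound across a concentration range and incubated three days. Replication was measured as luciferase activity to give dose-response curves.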

[2] = target: T1, HCV NS5B polymerase (His-tagged, C-terminal 21 amino acid deleted NS5B, HC-J4) (Hepatitis C virus genotype 1b, UniProt O92972); assay: NS5b polymerase assay (biochemical RdRp assay, 3H-GTP incorporation, SPA beads); design: species or system HCV genotype 1b; settings: 3H-GTP incorporation, 2 h at 25° C.
T1 construct: The cDNA encoding NS5B amino acid 1-570 (HC-J4, genotype 1b); His tag (His6, from pET-21b) (C); made in house; host or cells: E. coli BL21 (DE3)
Method in brief: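 His-tagged C-terminal-21-aa-deleted NS5B (genotype 1b, HC-J4) at 200 nM was preincubated 15 min at RT with compound on 5′-biotinylated oligo(rG13)/poly(rC) template/primer before NTPs. Reaction with 600 nM GTP plus 0.1 μCi 3H-GTP and 5 mM MgCl2 in Tris pH 7.5 ran 2 h at 25 °C. Stopped with EDTA/SPA beads for incorporation counting.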

[3] = Hepatitis C virus, Huh-7, 72 h, read-out: Replicon Assay EC50, Huh-Luc cells, three days incubation, luciferase activity
[4] = NS5B Polymerase Assay IC50, 200 nM enzyme
[5] = Huh-Luc cells, three days incubation, luciferase activity, read-out: Replicon Assay EC50
[6] = 200 nM enzyme, read-out: NS5B Polymerase Assay IC50

T1 sequence (O92972 2417-3000, looked up, stated change not applied): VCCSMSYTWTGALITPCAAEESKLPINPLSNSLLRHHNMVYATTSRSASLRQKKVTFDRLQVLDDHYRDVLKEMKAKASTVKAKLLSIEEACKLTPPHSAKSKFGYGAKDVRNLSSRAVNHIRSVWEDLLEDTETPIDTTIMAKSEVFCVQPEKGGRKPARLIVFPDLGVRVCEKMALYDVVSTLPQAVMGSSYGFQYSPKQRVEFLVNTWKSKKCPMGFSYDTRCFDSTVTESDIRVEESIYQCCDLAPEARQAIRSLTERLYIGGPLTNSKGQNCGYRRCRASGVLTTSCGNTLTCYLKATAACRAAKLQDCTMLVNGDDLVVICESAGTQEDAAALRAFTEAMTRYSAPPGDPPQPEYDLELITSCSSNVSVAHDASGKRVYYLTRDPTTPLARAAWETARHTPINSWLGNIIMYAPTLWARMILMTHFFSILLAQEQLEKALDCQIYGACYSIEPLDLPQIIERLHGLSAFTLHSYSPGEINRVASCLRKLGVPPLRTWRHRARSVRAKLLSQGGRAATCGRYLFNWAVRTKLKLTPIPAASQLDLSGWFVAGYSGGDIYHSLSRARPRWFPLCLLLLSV

Compound	EC50 [1, 3] [µM]	IC50 [2, 4] [µM]	EC50 [1, 5] [µM]	IC50 [2, 6] [µM]	EC50 ([1]; read-out: Replicon Assay EC50, Huh-Luc cells, three days incubation, luciferase activity) [µM]
CC(=O)N1c2ccccc2NC2=C(C(=O)CC(C)(C)C2)C1c1cccc(Cl)c1Cl (stereo not drawn) [compound 29]	6.79	> 42.7	–	–	–
COc1ccc(C2C3=C(CC(C)(C)CC3=O)Nc3ccccc3N2C(=O)CC(C)C)c(OC)c1 (stereo not drawn) [compound 30]	23	> 42.6	–	–	–
CC1(C)CC(=O)C2=C(C1)Nc1ccccc1N(C(=O)Cc1ccccc1)C2c1cccc(Cl)c1 (stereo not drawn) [compound 31]	6.36	> 42.7	–	–	–
COc1ccc(C2C3=C(CC(C)(C)CC3=O)Nc3ccccc3N2C(=O)c2ccc(F)cc2)cc1 (stereo not drawn) [compound 33]	24.7	> 42.6	–	–	–
COc1cccc(C2C3=C(CC(C)(C)CC3=O)Nc3ccccc3N2C(=O)Cc2ccc(Cl)cc2)c1 (stereo not drawn) [compound 34]	6.81	> 42.7	–	–	–
CC1(C)CC(=O)C2=C(C1)Nc1ccccc1N(C(=O)c1ccccc1)C2c1c(F)cccc1Cl (stereo not drawn) [compound 37]	6.93	> 42.7	–	–	–
CC1(C)CC(=O)C2=C(C1)Nc1ccccc1N(C(=O)Cc1ccccc1)C2c1cccc(O)c1 (stereo not drawn) [compound 39]	7.42	> 42.7	–	–	–
CCC(=O)N1c2ccccc2NC2=C(C(=O)CC(C)(C)C2)C1c1cccc(Cl)c1Cl (stereo not drawn) [compound 40]	> 24.7	> 42.7	–	–	–
COc1ccc(C2C3=C(CC(C)(C)CC3=O)Nc3ccccc3N2C(=O)CC(C)C)cc1 (stereo not drawn) [compound 41]	8.44	> 42.7	–	–	–
CC(=O)N1c2ccccc2NC2=C(C(=O)CC(C)(C)C2)C1c1ccc(OCc2ccccc2)cc1 (stereo not drawn) [compound 42]	–	–	6.39	5.68	–
CC(C)CC(=O)N1c2ccccc2NC2=C(C(=O)CC(C)(C)C2)C1c1c(F)cccc1Cl (stereo not drawn) [compound 43]	9.17	> 42.7	–	–	–
CC(=O)N1c2ccccc2NC2=C(C(=O)CC(C)(C)C2)C1c1ccccc1OCc1ccccc1 (stereo not drawn) [compound 44]	–	> 42.7	–	–	9.54
CCC(=O)N1c2ccccc2NC2=C(C(=O)CC(C)(C)C2)C1c1c(Cl)cccc1Cl (stereo not drawn) [compound 46]	11.1	> 42.7	–	–	–
CC1(C)CC(=O)C2=C(C1)Nc1ccccc1N(C(=O)C(F)(F)F)C2c1cccc([N+](=O)[O-])c1 (stereo not drawn) [compound 47]	16.4	> 42.7	–	–	–
COc1ccc(C2C3=C(CC(C)(C)CC3=O)Nc3ccccc3N2C(C)=O)cc1OCc1ccccc1 (stereo not drawn) [compound 48]	–	–	16.7	15.9	–
CCC(=O)N1c2ccccc2NC2=C(C(=O)CC(C)(C)C2)C1c1ccc(F)cc1 (stereo not drawn) [compound 49]	11.2	> 42.7	–	–	–
CC(=O)N1c2ccccc2NC2=C(C(=O)CC(C)(C)C2)C1c1c(Cl)cccc1Cl (stereo not drawn) [compound 50]	> 32	> 42.7	–	–	–
CC1(C)CC(=O)C2=C(C1)Nc1ccccc1N(C(=O)C(F)(F)F)C2c1ccc(OCc2ccccc2)cc1 (stereo not drawn) [compound 52]	7.44	> 42.7	–	–	–
CC1(C)CC(=O)C2=C(C1)Nc1ccccc1N(C(=O)C1CC1)C2c1ccc(Cl)cc1Cl (stereo not drawn) [compound 53]	> 32	19.7	–	–	–

Compound	EC50 [1, 3] [µM]	IC50 [2, 4] [µM]	EC50 [1, 5] [µM]	IC50 [2, 6] [µM]	EC50 ([1]; read-out: Replicon Assay EC50, Huh-Luc cells, three days incubation, luciferase activity) [µM]
CCC(=O)N1c2ccccc2NC2=C(C(=O)CC(C)(C)C2)C1c1ccc(Cl)cc1 (stereo not drawn) [compound 54]	22.3	> 42.7	–	–	–
CCC(=O)N1c2ccccc2NC2=C(C(=O)CC(C)(C)C2)C1c1ccc(C(F)(F)F)cc1 (stereo not drawn) [compound 55]	> 32	33.3	–	–	–
CC1(C)CC(=O)C2=C(C1)Nc1ccccc1N(C(=O)C(F)(F)F)C2c1ccc(Cl)cc1 (stereo not drawn) [compound 56]	25.3	> 42.7	–	–	–
CCOc1ccc(C2C3=C(CC(C)(C)CC3=O)Nc3ccccc3N2C(C)=O)cc1 (stereo not drawn) [compound 57]	4.47	> 42.7	–	–	–
COc1ccc(C2C3=C(CC(C)(C)CC3=O)Nc3ccccc3N2C(=O)C(F)(F)F)c(OC)c1 (stereo not drawn) [compound 58]	8.78	> 42.7	–	–	–
COc1ccc(C2C3=C(CC(C)(C)CC3=O)Nc3ccccc3N2C(C)=O)cc1COc1ccc(F)cc1 (stereo not drawn) [compound 59]	5.74	> 42.7	–	–	–
CCC(=O)N1c2ccccc2NC2=C(C(=O)CC(C)(C)C2)C1c1cc(OC)ccc1OC (stereo not drawn) [compound 60]	17.9	> 42.7	–	–	–
CCC(=O)N1c2ccccc2NC2=C(C(=O)CC(C)(C)C2)C1c1ccccc1OC(C)CC (stereo not drawn) [compound 61]	9.45	> 42.7	–	–	–
COc1c(Cl)cc(Cl)cc1C1C2=C(CC(C)(C)CC2=O)Nc2ccccc2N1C(=O)C(C)C (stereo not drawn) [compound 62]	22.6	> 42.7	–	–	–
CCCOc1ccccc1C1C2=C(CC(C)(C)CC2=O)Nc2ccccc2N1C(=O)CC (stereo not drawn) [compound 63]	5	> 42.7	–	–	–
CCOc1cc(C2C3=C(CC(C)(C)CC3=O)Nc3ccccc3N2C(=O)c2ccccc2)ccc1O (stereo not drawn) [compound 64]	22.9	> 42.7	–	–	–
CCC(C)Oc1ccccc1C1C2=C(CC(C)(C)CC2=O)Nc2ccccc2N1C(=O)C(F)(F)F (stereo not drawn) [compound 65]	2.48	> 42.7	–	–	–
CCCCC(=O)N1c2ccccc2NC2=C(C(=O)CC(C)(C)C2)C1c1ccccc1Cl (stereo not drawn) [compound 66]	23	> 42.7	–	–	–
CCCCCOc1ccc(C2C3=C(CC(C)(C)CC3=O)Nc3ccccc3N2C(=O)c2ccccc2F)cc1 (stereo not drawn) [compound 67]	5.67	> 42.7	–	–	–
COc1ccc(C2C3=C(CC(C)(C)CC3=O)Nc3ccccc3N2C(=O)c2ccc(Cl)cc2)cc1OC (stereo not drawn) [compound 68]	23.1	> 42.7	–	–	–
CC1(C)CC(=O)C2=C(C1)Nc1ccccc1N(C(=O)Cc1ccccc1)C2c1c(F)cccc1Cl (stereo not drawn) [compound 69]	4.58	> 42.7	–	–	–
CC1(C)CC(=O)C2=C(C1)Nc1ccccc1N(C(=O)c1ccccc1)C2c1ccccc1Cl (stereo not drawn) [compound 70]	14.6	> 42.7	–	–	–
COc1ccc(OC)c(C2C3=C(CC(C)(C)CC3=O)Nc3ccccc3N2C(=O)c2ccccc2)c1 (stereo not drawn) [compound 72]	23.6	> 42.7	–	–	–
COc1c(Cl)cc(Cl)cc1C1C2=C(CC(C)(C)CC2=O)Nc2ccccc2N1C(C)=O (stereo not drawn) [compound 73]	19.9	> 42.7	–	–	–

Compound	EC50 [1, 3] [µM]	IC50 [2, 4] [µM]	EC50 [1, 5] [µM]	IC50 [2, 6] [µM]	EC50 ([1]; read-out: Replicon Assay EC50, Huh-Luc cells, three days incubation, luciferase activity) [µM]
CC1(C)CC(=O)C2=C(C1)Nc1ccccc1N(C(=O)c1ccccc1)C2c1ccc(Br)cc1 (stereo not drawn) [compound 74]	> 26.7	> 42.7	–	–	–
CCC(=O)N1c2ccccc2NC2=C(C(=O)CC(C)(C)C2)C1c1ccc(OC)cc1OC (stereo not drawn) [compound 75]	20.5	> 42.7	–	–	–
CN(C)c1ccc(C2C3=C(CC(C)(C)CC3=O)Nc3ccccc3N2C(=O)Nc2ccc(Cl)c(Cl)c2)cc1 (stereo not drawn) [compound 76]	6.27	> 33.3	–	–	–
CC1(C)CC(=O)C2=C(C1)Nc1ccccc1N(C(=O)c1ccccc1)C2c1ccc(F)cc1 (stereo not drawn) [compound 77]	21.2	> 42.7	–	–	–
CC(C)CC(=O)N1c2ccccc2NC2=C(C(=O)CC(C)(C)C2)C1c1ccc(Cl)c(Cl)c1 (stereo not drawn) [compound 78]	22.2	> 33.3	–	–	–
CCCCOc1cccc(C2C3=C(CC(C)(C)CC3=O)Nc3ccccc3N2C(C)=O)c1 (stereo not drawn) [compound 79]	31.3	> 42.7	–	–	–
CCCCC(=O)N1c2ccccc2NC2=C(C(=O)CC(C)(C)C2)C1c1ccc(OC)c(OC)c1 (stereo not drawn) [compound 80]	9.53	> 33.3	–	–	–
COc1ccccc1C1C2=C(CC(C)(C)CC2=O)Nc2ccccc2N1C(=O)Cc1ccccc1 (stereo not drawn) [compound 81]	6.72	> 42.7	–	–	–
COc1cccc(C2C3=C(CC(C)(C)CC3=O)Nc3ccccc3N2C(=O)Cc2ccccc2)c1 (stereo not drawn) [compound 82]	6.8	> 42.7	–	–	–
CCCCCC(=O)N1c2ccccc2NC2=C(C(=O)CC(C)(C)C2)C1c1ccc(OC(C)C)cc1 (stereo not drawn) [compound 83]	4.16	> 42.7	–	–	–
CCC(=O)N1c2ccccc2NC2=C(C(=O)CC(C)(C)C2)C1c1ccc(OC)c(OC)c1 (stereo not drawn) [compound 84]	20.9	> 42.7	–	–	–
CCOc1ccc(C2C3=C(CC(C)(C)CC3=O)Nc3ccccc3N2C(=O)Cc2ccc(Cl)cc2)cc1 (stereo not drawn) [compound 85]	21.4	> 42.7	–	–	–
CCOc1ccc(C2C3=C(CC(C)(C)CC3=O)Nc3ccccc3N2C(=O)Cc2ccccc2)cc1 (stereo not drawn) [compound 86]	9.69	> 42.7	–	–	–
CC1(C)CC(=O)C2=C(C1)Nc1ccccc1N(C(=O)C(F)(F)F)C2c1ccccc1Cl (stereo not drawn) [compound 87]	> 32	> 42.7	–	–	–
CC1(C)CC(=O)C2=C(C1)Nc1ccccc1N(C(=O)c1ccccc1)C2c1ccc(Cl)cc1 (stereo not drawn) [compound 88]	6.1	18.5	–	–	–
CC1(C)CC(=O)C2=C(C1)Nc1ccccc1N(C(=O)C(F)(F)F)C2c1ccc([N+](=O)[O-])cc1 (stereo not drawn) [compound 89]	5.32	> 42.7	–	–	–
CCCCOc1ccc(C2C3=C(CC(C)(C)CC3=O)Nc3ccccc3N2C(=O)c2ccccc2)cc1 (stereo not drawn) [compound 91]	8.14	> 42.7	–	–	–
CC1(C)CC(=O)C2=C(C1)Nc1ccccc1N(C(=O)c1ccccc1)C2c1ccccc1 (stereo not drawn) [compound 92]	17.6	> 42.7	–	–	–
CCCCCC(=O)N1c2ccccc2NC2=C(C(=O)CC(C)(C)C2)C1c1ccccc1OC(C)CC (stereo not drawn) [compound 93]	4.05	> 42.7	–	–	–
